Results reported in article PMC7253423, “Quassinoid analogs with enhanced efficacy for treatment of hematologic malignancies target the PI3Kγ isoform” (Communications Biology, 2020).
Where “and” joins values, the source holds several entries; their conditions need not be identical. Equal entries are not always repeated.

Assays:
MOLM14 cells = test: Cell viability assay (CellTiter-Glo luminescence); format: cell-based; settings: Homo sapiens
Procedure: (§1) 5000 cells as indicated were cultured in 96-well plate with 100 μl of media. […] After treatment, the cells were incubated with 100 μl buffer for 10 min at room temperature following the instructions of CellTiter-Glo kit (Promega, Madison, WI). Luminescence was detected using a multi-mode reader Cytation 5 (BioTek, Winooski, VT). […] Two independent experiments done in duplicates were performed.

[1] = In vivo toxicity test, survival rate; parameters: species or system NOD/SCID mice; settings: for survival event status per mouse (Fig 6i; 1 = event/death, 0 = censored): 10mg/kg
Procedure: The survival rate was recorded to monitor the tolerance of the compounds in these mice.

[2] = Body weight of xenograft mice; format: in vivo, NOD/SCID mice; settings: individual mice, Fig S3i, in g (unit assumed)
Procedure: Six-week-old male NOD.CB17-Prkdc^scid/J (NOD/SCID) mice (Jackson Labs, Bar Harbor, ME, USA) were used as the human-in-mouse xeno-transplantation model. MOLM14 cells (1 × 10^7 cells) were injected into the subcutaneous space on the left flank of the mice. […] Body weight and tumor size were monitored before every injection. After treatment for 2 weeks, the mice were euthanized by CO2 inhalation and the tumors were carefully excised. The tumor volume (mm^3) was measured and calculated using the formula (a × b × b)/2 (a, the largest diameter of two measurements; b, the smallest diameter of two measurements).

LCL1 cells [3] = test: Cell viability assay (CellTiter-Glo luminescence); format: cell-based, human; settings: 72 h, duplicates
Procedure: After treatment, the cells were incubated with 100 μl buffer for 10 min at room temperature following the instructions of CellTiter-Glo kit (Promega, Madison, WI). Luminescence was detected using a multi-mode reader Cytation 5 (BioTek, Winooski, VT). […] Two independent experiments done in duplicates were performed.

K562 cells [4] = test: Cell viability assay (CellTiter-Glo luminescence); format: cell-based, human; settings: K562, 100nM, 72 hours
Procedure: as §1

LCL1 cells [5] = test: RNA-Seq and Ingenuity Pathway Analysis (upstream regulator analysis); format: cell-based, human
Procedure: The cDNA library was prepared with the commercial Illumina library preparation kits (TruSeq Stranded RNA LT Ribo-Zero H/M/R Kit) according to the manufacturer’s protocols and sequenced with an Illumina HiSeq2000 instrument (Washington University Genome Sequencing Center). Quality check was performed on the raw RNA-Seq reads (FastQC, https://www.bioinformatics.babraham.ac.uk/projects/fastqc/), and the adapters were cut (Trim Galore, https://www.bioinformatics.babraham.ac.uk/projects/trim_galore/) and mapped with hg38 genome (HISAT2)[64]. Differentially expressed transcripts were defined with Cuffdiff tools[65] and visualized using R software (https://www.r-project.org/). Signaling pathway analysis was conducted with the Ingenuity Pathway Analysis program (QIAGEN Inc., https://www.qiagenbioinformatics.com/products/ingenuitypathway-analysis)[27].

[6] = system: PIK3CG knock-out Raji cells; test: Western blot of PI3K/AKT associated proteins in knock-out cells; format: cell-based, human; settings: 100 nM, 72 h
Procedure: Western blot analyses were performed as previously described. Briefly, total cell lysates were separated by SDS-PAGE gel and transferred to nitrocellulose membrane. The membranes were blocked with 5% non-fat milk, probed with specific antibodies, and visualized using the Odyssey scanner (LiCor Inc., Lincoln, NE).
Oligos were obtained from Integrated DNA Technologies (IDT; Coralville, IA, USA) and cloned into the lentiviral vector lentiCRISPR v2 (Addgene #52961)[66]. Lentivirus production and transduction have been described previously. Here, Raji cells were transduced with a lentivirus harboring lentiCRISPR v2 vector or a construct containing the guide sequence ([…]) against PIK3CG gene. At 48 h post-transduction, cells were selected with puromycin and harvested to determine PIK3CG expression with western blot.

K562 cells [7] = test: Cell cycle assay (PI staining, flow cytometry); format: cell-based, human; settings: K562, 100 nM, 48 h
Procedure: (§2) Five million cells were harvested, fixed with 80% ethanol for 2 h or overnight at −20 °C, then washed with PBS and incubated with Propidium iodide (PI) staining buffer (0.5 mg/ml propidium iodide in PBS with 50 μg/ml RNase A) for 30 min at room temperature. The stained cells were resuspended in PBS and analyzed on a FACSCalibur system (Becton Dickinson, San Jose, CA, USA) using FlowJo software (TreeStar, San Carlos, CA, USA).

SU-DHL-4 cells = test: Cell cycle assay (PI staining, flow cytometry); format: cell-based, human; settings: SU-DHL-4, 100 nM, 48 h
Procedure: as §2

HL-60 cells = test: Cell cycle assay (PI staining, flow cytometry); format: cell-based, human; settings: HL-60, 100 nM, 48 h
Procedure: as §2

Raji cells = test: Cell cycle assay (PI staining, flow cytometry); format: cell-based, human; settings: 100 nM, 48 h
Procedure: as §2

[8] = Brusatol-treated LCL1 cells, RNA-Seq, IPA

For `COC(=O)C12OCC34C(CC5C(C)=C(OC(=O)CNC(=O)OC(C)(C)C)C(=O)CC5(C)C3C(O)C1O)OC(=O)C(OC(=O)C=C(C)C)C24` (stereo not shown) [#15], the viability at 0.00244141 µM (MOLM14 cells; MOLM-14, read-out: relative cell viability (Fig 6e), replicates, MOLM14, Con. 0.00244141 μM, fraction of 0 μM control) was 71.1%, the viability at 0.0390625 µM (MOLM14 cells; MOLM-14, read-out: relative cell viability (Fig 6e), replicates, MOLM14, Con. 0.0390625 μM, fraction of 0 μM control) was 15% and the viability at 0.15625 µM (MOLM14 cells; MOLM-14, read-out: relative cell viability (Fig 6e), replicates, MOLM14, Con. 0.15625 μM, fraction of 0 μM control) was 5.59%. For the same compound, the viability at 0.625 µM (MOLM14 cells; MOLM-14, read-out: relative cell viability (Fig 6e), replicates, MOLM14, Con. 0.625 μM, fraction of 0 μM control) was 3.26%, the viability at 10 µM (MOLM14 cells; MOLM-14, read-out: relative cell viability (Fig 6e), replicates, MOLM14, Con. 10 μM, fraction of 0 μM control) was 3.59% and the “toxicity in vivo (survival)” value ([1]; 10 mg/kg intraperitoneally every other day, monitored 24 days, 4 mice per group) was “obviously lethal for the majority of mice within the first 4 days”. For the same compound, the “survival event status per mouse (Fig 6i; 1 = event/death, 0 = censored)” value ([1]; Days Post-treatment 2) was 1, the “survival event status per mouse (Fig 6i; 1 = event/death, 0 = censored)” value ([1]; Days Post-treatment 3) was 1 and the “survival event status per mouse (Fig 6i; 1 = event/death, 0 = censored)” value ([1]; Days Post-treatment 4) was 1. For the same compound, the Body weight ([2]; 0d) was 22.36 and 23.19 and 22.87 and 22.58 and 24.63, the Body weight ([2]; 2d) was 23.14 and 23.83 and 23.95 and 23.84 and 24.63 and the Body weight ([2]; 4d) was 23.76 and 24.67 and 24.61 and 23.58 and 25.59. The Body weight ([2]; 6d) was 23.47 and 24.61 and 23.88, the Body weight ([2]; 8d) was 23.92 and 24.24 and 24.72 and 24.85 and 23.89 and 25.62 and the Body weight ([2]; 10d) was 24.4 and 25.19 and 24.12. The Body weight ([2]; 12d) was 25.79 and 25.75 and 24.71 and 26.96.
For Brusatol, the “Cell viability (luminescence)” value (LCL1 cells [3]; LCL1, cell number 0, 100 nM) was 0.8054 and 1.195, the “Cell viability (luminescence)” value (LCL1 cells [3]; LCL1, cell number 625, 100 nM) was 1.142 and 1.405 and the “Cell viability (luminescence)” value (LCL1 cells [3]; LCL1, cell number 1250, 100 nM) was 2.424 and 2.078. For the same compound, the “Cell viability (luminescence)” value (LCL1 cells [3]; LCL1, cell number 2500, 100 nM) was 3.232 and 2.818, the “Cell viability (luminescence)” value (LCL1 cells [3]; LCL1, cell number 5000, 100 nM) was 3.613 and 2.736 and the “Cell viability (luminescence)” value (LCL1 cells [3]; LCL1, cell number 10000, 100 nM) was 4.594 and 3.987. For the same compound, the killing (K562 cells [4]; experiment of Fig 3a) was “more than 90%”, the killing (K562 cells [4]; independent experiment of Fig 3b) was “approximately 50%” and the “Expr Other, upstream regulator ALDH1A2” value (LCL1 cells [5]; [8]) was -1.404. The “Expr Other, upstream regulator ARRB2” value (LCL1 cells [5]; [8]) was -0.306, the “Expr Other, upstream regulator CBX5” value (LCL1 cells [5]; [8]) was -1.126 and the “Expr Other, upstream regulator CD22” value (LCL1 cells [5]; [8]) was 2.89. For the same compound, the “Expr Other, upstream regulator CDC73” value (LCL1 cells [5]; [8]) was -0.568, the “Expr Other, upstream regulator CYLD” value (LCL1 cells [5]; [8]) was -1.473 and the “Expr Other, upstream regulator DICER1” value (LCL1 cells [5]; [8]) was 1.146. For the same compound, the “Expr Other, upstream regulator DNAJB6” value (LCL1 cells [5]; [8]) was 0.673, the “Expr Other, upstream regulator FKBP4” value (LCL1 cells [5]; [8]) was 0.61 and the “Expr Other, upstream regulator GMNN” value (LCL1 cells [5]; [8]) was -1.679. The “Expr Other, upstream regulator GRN” value (LCL1 cells [5]; [8]) was 0.925, the “Expr Other, upstream regulator IFNGR1” value (LCL1 cells [5]; [8]) was 0.304 and the “Expr Other, upstream regulator KMT2D” value (LCL1 cells [5]; [8]) was -0.912. The “Expr Other, upstream regulator NONO” value (LCL1 cells [5]; [8]) was 1.295, the “Expr Other, upstream regulator PAX8” value (LCL1 cells [5]; [8]) was 1.9 and the “Expr Other, upstream regulator PTPRJ” value (LCL1 cells [5]; [8]) was -1.699. For the same compound, the “Expr Other, upstream regulator RARRES3” value (LCL1 cells [5]; [8]) was 2.648, the “Expr Other, upstream regulator SOD2” value (LCL1 cells [5]; [8]) was 1.251 and the “Expr Other, upstream regulator UPF2” value (LCL1 cells [5]; [8]) was -0.435. For the same compound, the “Expr Other, upstream regulator WDR5” value (LCL1 cells [5]; [8]) was 0.395, the “Expr Other, upstream regulator ZC3H12A” value (LCL1 cells [5]; [8]) was -1.316 and the “CTNNA1 transcript (RNA-Seq)” value (LCL1 cells [5]; LCL1, 72 h) was “dramatically downregulated”. For the same compound, the “SLC22A1 transcript (RNA-Seq)” value (LCL1 cells [5]; LCL1, 72 h) was “highly upregulated”, the AKT1 level [6] was “no obvious decrease” and the Sub-G1 population (K562 cells [7]) was 3.19%. The Sub-G1 population (SU-DHL-4 cells) was 67.9%, the Sub-G1 population (HL-60 cells) was 7.63% and the Sub-G1 population (Raji cells) was 68.4%.
